According to patent US4281136A, “2-Alkyl-3-haloisothiazolium salts and their derivatives” (Givaudan Corporation, priority 1978, dated 1981):
Values after ≈ are worked out from the molar mass of the structure shown. Read-outs that look alike come from different tables or passages of the source.

Experiments:
[1] = system: Ps. aeruginosa; assay: preservative for cutting oil emulsions; format: cell-based; conditions: for MIC: Pseudomonas aeruginosa; for Minimum Inhibitory Concentration: listed as CH3, Cl
Method: Various aliquots of a 6% solution of the chemical in ethanol were added to cutting oil emulsions prepared by diluting Kutwell 30 cutting oil concentrate 1 to 30 with water. These samples were inoculated with a culture of Ps. aeruginosa and incubated at 28° on a rotary shaker. At weekly intervals the samples were examined for microorganisms and then reinoculated and incubated.

[2] = system: Aureobasidium pullulans; assay: preservative for latex paints; format: cell-based; conditions: three weeks, 27°-28°, listed as CH3, Cl, Cl, SbCl6
Method: Various quantities of the chemical were incorporated into a white exterior vinyl acetate paint. Whatman #30 filter paper was painted with one coat of paint on each side. One inch squares were cut and placed in Petri dishes on a malt agar.
The surface of both the agar and the painted squares were inoculated with a spore suspension of Aureobasidium pullulans. The plates were examined for zones of inhibition and surface growth after three weeks incubation in a humidity chamber at 27°-28°.
Various quantities of 4,5-dichloro-2-methyl-4-isothiazolin-3-thione were incorporated into a white exterior vinyl acetate paint and tested as described in Example IV.

[3] = 168 h, read-out: Minimum Inhibitory Concentration, cutting oil emulsion, incubation 1 week, 28°
[4] = 336 h, read-out: Minimum Inhibitory Concentration, cutting oil emulsion, incubation 2 weeks, 28°
[5] = 504 h, read-out: Minimum Inhibitory Concentration, cutting oil emulsion, incubation 3 weeks, 28°
[6] = 672 h, read-out: Minimum Inhibitory Concentration, cutting oil emulsion, incubation 4 weeks, 28°
[7] = 168 h, cutting oil emulsion, incubation 1 week, 28°, read-out: Minimum Inhibitory Concentration
[8] = 336 h, cutting oil emulsion, incubation 2 weeks, 28°, read-out: Minimum Inhibitory Concentration
[9] = 504 h, cutting oil emulsion, incubation 3 weeks, 28°, read-out: Minimum Inhibitory Concentration
[10] = 672 h, cutting oil emulsion, incubation 4 weeks, 28°, read-out: Minimum Inhibitory Concentration

SMILES	MIC [1, 3] [µg/mL]	MIC [1, 4] [µg/mL]	MIC [1, 5] [µg/mL]	MIC [1, 6] [µg/mL]	MIC [1, 7] [µg/mL]	MIC [1, 8] [µg/mL]	MIC [1, 9] [µg/mL]	MIC [1, 10] [µg/mL]	further results
C[n+]1sc(Cl)c(Cl)c1Cl.O=S(=O)([O-])C(F)(F)F [No. 4 (Table I), 2-Methyl-3,4,5-trichloroisothiazolium trifluoromethane sulfonate]	2	2	16	64					
CCOC(=O)c1sn(C)c(=S)c1Cl [No. 5 (Table VIII)]					250 (≈ 1050 µM)	125 (≈ 526 µM)	125 (≈ 526 µM)	62 (≈ 261 µM)	
C[n+]1sc(C#N)c(Cl)c1Cl [No. 25 (Table I), 5-Cyano-3,4-dichloro-2-methylisothiazolium fluorosulfonate]					< 16	125	250	250	
C[n+]1sccc1Cl.O=[N+]([O-])[O-] [No. 15 (Table I), 2-Methyl-3-chloroisothiazolium nitrate]	8	8	8	8					
C[n+]1sc(Cl)c(Cl)c1Cl [No. 3 (Table I), 2-Methyl-3,4,5-trichloroisothiazolium hexachloroantimonate]									Zone (zone of inhibition) ([2]; Conc. 0.25% in vinyl acetate paint): 20 mm; Zone (zone of inhibition) ([2]; Conc. 0.5% in vinyl acetate paint): 20 mm; Minimum Inhibitory Concentration ([1]; cutting oil emulsion, incubation 1 week, 28°, Cl, SbCl6): 2 µg/mL; Minimum Inhibitory Concentration ([1]; cutting oil emulsion, incubation 2 weeks, 28°, Cl, SbCl6): 2 µg/mL; Minimum Inhibitory Concentration ([1]; cutting oil emulsion, incubation 3 weeks, 28°, Cl, SbCl6): 2 µg/mL; Minimum Inhibitory Concentration ([1]; cutting oil emulsion, incubation 4 weeks, 28°, Cl, SbCl6): 64 µg/mL
CCC[n+]1sc(Cl)c(Cl)c1Cl.O=S(=O)([O-])C(F)(F)F [No. 10 (Table I), 2-Propyl-3,4,5-trichloroisothiazolium trifluoromethane sulfonate]					< 32	< 32	< 32	< 32	
C[n+]1sccc1Cl [No. 16 (Table I)]									Minimum Inhibitory Concentration ([1]; cutting oil emulsion, incubation 1 week, 28°, H, SbCl6): 8 µg/mL; Minimum Inhibitory Concentration ([1]; cutting oil emulsion, incubation 2 weeks, 28°, H, SbCl6): 16 µg/mL; Minimum Inhibitory Concentration ([1]; cutting oil emulsion, incubation 3 weeks, 28°, H, SbCl6): 16 µg/mL; Minimum Inhibitory Concentration ([1]; cutting oil emulsion, incubation 4 weeks, 28°, H, SbCl6): 16 µg/mL
Cn1sccc1=S [No. 3 (Table VIII)]	125 (≈ 953 µM)	250 (≈ 1910 µM)	250 (≈ 1910 µM)	250 (≈ 1910 µM)					
CCC[n+]1sccc1Cl [No. 20 (Table I)]	125	250	250	500					
CN1SC(C#N)=C(Cl)C1=C(C#N)C#N [drawing 12 CH3, Cl, CN]					62 (≈ 278 µM)	250 (≈ 1120 µM)	250 (≈ 1120 µM)	250 (≈ 1120 µM)	
CC[n+]1sccc1Cl [No. 18 (Table I), 3-Chloro-2-ethylisothiazolium ethylsulfate]	125	125	125	500					
C[n+]1sccc1Cl [No. 13 (Table I), 3-Chloro-2-methylisothiazolium fluorosulfonate]									Minimum Inhibitory Concentration ([1]; cutting oil emulsion, incubation 1 week, 28°, H, O3SF): 32 µg/mL; Minimum Inhibitory Concentration ([1]; cutting oil emulsion, incubation 2 weeks, 28°, H, O3SF): 32 µg/mL; Minimum Inhibitory Concentration ([1]; cutting oil emulsion, incubation 3 weeks, 28°, H, O3SF): 32 µg/mL; Minimum Inhibitory Concentration ([1]; cutting oil emulsion, incubation 4 weeks, 28°, H, O3SF): 32 µg/mL
CC[n+]1sc(Cl)c(Cl)c1Cl.F[B-](F)(F)F [No. 7 (Table I), 2-Ethyl-3,4,5-trichloroisothiazolium tetrafluoroborate]					4	8	8	32	
Cc1s[n+](C)c(Cl)c1Cl [No. 27 (Table I), 3,4-Dichloro-2,5-dimethylisothiazolium fluorosulfonate]	125	250	500	500					
CCOC(=O)C1=C(Cl)C(=C(C#N)C#N)N(C)S1 [drawing 12 CH3, Cl, COOEt, 4-Chloro-3-dicyanomethylene-5-ethoxycarbonyl-2-methyl-4-isothiazoline]					125 (≈ 463 µM)	125 (≈ 463 µM)	125 (≈ 463 µM)	125 (≈ 463 µM)	
